# Patent US11866518B2, “Bicyclic peptide ligands specific for TSLP” (BicycleTx Limited, priority 2020, dated 2024)
# *1 amine or outer side, *2 acyl side, *3 side chain or, on linkers, in order; H or OH if unused. Where a SMILES comes first, the peptide text is derived from it. Bridges are numbered along the chain shown (N, C = ends). TATA = O=C(CC[*:1])N1CN(C(=O)CC[*:2])CN(C(=O)CC[*:3])C1
# Experiments:
# TSLP [1] = target: T1, TSLP (Homo sapiens, UniProt Q969D9); assay: Human peripheral blood mononuclear cell assay (TSLP-induced CCL17/TARC); type: cell-based; parameters: host or cells: added to human PBMCs from healthy donors; details: read-out: CCL17 % Inhibition @ 10 μM, […] TSLP
# Method: Human peripheral blood mononuclear cells (PMBCs) were obtained from heparinized whole blood (healthy donors) by density gradient centrifugation using Lymphoprep (StemCell Technologies, Vancouver, BC) according to the manufacturers instructions. The PBMCs were washed twice with PBS containing 2 mM EDTA and 2% fetal calf serum (FCS) and reconstituted in RPMI containing 10% FCS and 2% PenStrep at a final concentration of 3 million cells/mL. This cell suspension (100 μL) was aliquoted into the wells of a 96-well flat bottom tissue culture plate. 5 μL of bicycle peptide or vehicle (0.1% DMSO in complete medium) was then added and mixed with 5 μL of TSLPvehicle (complete medium). […] The plate was incubated for 30 minutes are rt. 10 μL of this mixture was added to cells and the plate was incubated for 24 hours in a 10% CO2, humidified incubator at 37° C. The plate was centrifuged at 300×g for 5 min and the collected supernatants frozen at −20° C. for subsequent CCL17/TARC analysis.
# CCL17/TARC was determined by MSD (MesoScale Discovery, Maryland, USA) according to the manufacturer's instructions.
# TSLP [2] = target: T1, TSLP; assay: Human TSLP Surface Plasmon Resonance (SPR) binding assay; parameters: The resulting construct spCD33-6×HN-TEV-hTSLP(29-159)-Avi; 6xHN tag with TEV site (N, cleaved yes); made in house; host or cells: Expi293F cells; details: biotinylated human TSLP immobilized on streptavidin chip; 20° C.; steady-state or kinetic 1:1 fit; read-out: hTSLP SPR Kd
# [3] = the molecule shown is the open-chain precursor, triazole bond, 27-membered ring, CuSO4/Na ascorbate, H2O/tBuOH
# T1 sequence (Q969D9 29-159): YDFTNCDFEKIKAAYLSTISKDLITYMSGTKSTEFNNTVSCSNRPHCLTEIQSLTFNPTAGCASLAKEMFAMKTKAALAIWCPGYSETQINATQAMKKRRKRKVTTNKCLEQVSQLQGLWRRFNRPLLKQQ
Compound,inhibition at 10 µM (TSLP [1]) [%],Kd (TSLP [2]) [µM],"ring closure, yield after HPLC [3] [%]"
"CC(C)C[C@@H]1NC(=O)[C@H](Cc2c[nH]c3ccccc23)NC(=O)[C@H](C(C)C)NC(=O)[C@@H](NC(=O)[C@@H]2CCCN2C(=O)[C@@H]2CCCN2C(=O)[C@@H](N)CO)CSCCC(=O)N2CN3CN(C2)C(=O)CCSC[C@H](NC(=O)[C@H](CC(=O)O)NC(=O)[C@H](CC(=O)O)NC1=O)C(=O)N[C@@H](Cc1c[nH]c2ccccc12)C(=O)N[C@@H](CCCNC(=N)N)C(=O)NCC(=O)N[C@@H](Cc1ccccc1)C(=O)N[C@H](C(=O)N[C@@H](C)C(N)=O)CSCCC3=O [Example 73, SPP-(SEQ ID NO: 54)-A] (H-SPPCVWLDDCWRGFCA-NH2; linker 4-10-15 via TATA; N-terminus and C-terminus assumed)",-11,0.085,–
"CC(=O)N[C@H]1CSCCC(=O)N2CN3CN(C2)C(=O)CCSC[C@H](NC(=O)[C@H](CC(=O)O)NC(=O)[C@H](CCC(=O)O)NC(=O)[C@H](CC(C)C)NC(=O)[C@H](Cc2c[nH]c4ccccc24)NC(=O)[C@H](CCC(N)=O)NC1=O)C(=O)N[C@@H](Cc1c[nH]c2ccccc12)C(=O)N[C@@H](CCCNC(=N)N)C(=O)NCC(=O)N[C@@H](Cc1cccc(C)c1)C(=O)N[C@H](C(N)=O)CSCCC3=O [Example 74, Ac-(SEQ ID NO: 55)]",43,0.091,–
"CC(C)C[C@H](NC(=O)[C@H](Cc1c[nH]cn1)NC(=O)[C@@H]1CSCCC(=O)N2CN3CN(C2)C(=O)CCSC[C@H](NC(=O)[C@H](CC(=O)O)NC(=O)[C@H](CCC(=O)O)NC(=O)[C@H](CC(C)C)NC(=O)[C@H](Cc2c[nH]c4ccccc24)NC(=O)[C@H](Cc2c[nH]cn2)NC(=O)[C@@H](NC(=O)[C@H](C)N)CSCCC3=O)C(=O)N[C@@H](Cc2c[nH]c3ccccc23)C(=O)N[C@@H](CCCNC(=N)N)C(=O)NCC(=O)N[C@@H](Cc2ccccc2)C(=O)N1)C(=O)N[C@@H](CCC(=O)O)C(N)=O [Example 75, A-(SEQ ID NO: 56)-HLE] (H-ACHWLEDCWRGFCHLE-NH2; linker 2-8-13 via TATA)",-2,0.092,–
"CC(C)C[C@@H]1NC(=O)[C@H](Cc2c[nH]c3ccccc23)NC(=O)[C@H](Cc2c[nH]c3ccccc23)NC(=O)[C@H](CO)NC(=O)[C@H](CO)NC(=O)[C@@H]2CSCCC(=O)N3CN(CN(C3)C(=O)CCSC[C@@H](C(=O)N[C@@H](C)C(N)=O)NC1=O)C(=O)CCSC[C@H](NC(=O)[C@H](C)N)C(=O)N[C@@H](CCCNC(=N)N)C(=O)N[C@@H](CC(=O)O)C(=O)N[C@@H](CC(C)C)C(=O)N[C@@H](CC(=O)O)C(=O)N1CCC[C@H]1C(=O)N[C@@H](Cc1c[nH]c3ccccc13)C(=O)N[C@@H]([C@@H](C)O)C(=O)N2 [Example 164, A-(SEQ ID NO: 122)-A]",0,0.098,–
"CC(C)C[C@@H]1NC(=O)[C@H](Cc2c[nH]c3ccccc23)NC(=O)[C@H](Cc2c[nH]c3ccccc23)NC(=O)[C@H](CC(N)=O)NC(=O)[C@@H]2CCCN2C(=O)[C@@H]2CSCCC(=O)N3CN(CN(C3)C(=O)CCSC[C@H](NC(=O)[C@@H]3CCCN3C(=O)[C@H](Cc3c[nH]cn3)NC(=O)[C@H](C)N)C(=O)N[C@@H](C)C(=O)N[C@@H](CC(=O)O)C(=O)N[C@@H](CC(C)C)C(=O)N[C@@H](CC(=O)O)C(=O)N3CCC[C@H]3C(=O)N[C@@H](Cc3c[nH]c4ccccc34)C(=O)N[C@@H]([C@@H](C)O)C(=O)N2)C(=O)CCSC[C@@H](C(=O)N[C@@H](C)C(N)=O)NC1=O [Example 165, AHP-(SEQ ID NO: 123)-A] (H-AHPCADLDPWTCPNWWLCA-NH2; linker 4-12-18 via TATA; N-terminus and C-terminus assumed)",33,0.03,–
"CC(C)C[C@@H]1NC(=O)[C@H](Cc2c[nH]c3ccccc23)NC(=O)[C@H](Cc2c[nH]c3ccccc23)NC(=O)[C@H](CO)NC(=O)[C@H](CO)NC(=O)[C@@H]2CSCCC(=O)N3CN(CN(C3)C(=O)CCSC[C@H](NC(=O)[C@@H](NC(=O)[C@H](CCC(N)=O)NC(=O)[C@@H](NC(=O)[C@@H](NC(=O)[C@H](C)NC(=O)[C@@H](N)Cc3ccc(O)cc3)[C@@H](C)O)[C@@H](C)O)C(C)C)C(=O)N[C@@H](CCCNC(=N)N)C(=O)N[C@@H](CC(=O)O)C(=O)N[C@@H](CC(C)C)C(=O)N[C@@H](CC(=O)O)C(=O)N3CCC[C@H]3C(=O)N[C@@H](Cc3c[nH]c4ccccc34)C(=O)N[C@@H]([C@@H](C)O)C(=O)N2)C(=O)CCSC[C@@H](C(=O)N[C@@H](C)C(N)=O)NC1=O [Example 171, YATTQV-(SEQ ID NO: 122)-A]",36,0.048,–
"CC(C)C[C@@H]1NC(=O)[C@H](Cc2c[nH]c3ccccc23)NC(=O)[C@H](Cc2c[nH]c3ccccc23)NC(=O)[C@H](CC(=O)O)NC(=O)[C@H](CO)NC(=O)[C@@H]2CSCCC(=O)N3CN(CN(C3)C(=O)CCSC[C@H](NC(=O)[C@@H]3CCCN3C(=O)[C@H](C)NC(=O)[C@@H](N)CCCNC(=N)N)C(=O)N3CCC[C@H]3C(=O)N[C@@H](CC(=O)O)C(=O)N[C@@H](CC(C)C)C(=O)N[C@@H](CC(=O)O)C(=O)N3CCC[C@H]3C(=O)N[C@@H](Cc3c[nH]c4ccccc34)C(=O)N[C@@H]([C@@H](C)O)C(=O)N2)C(=O)CCSC[C@@H](C(=O)N[C@@H](C)C(N)=O)NC1=O [Example 187, RAP-(SEQ ID NO: 136)-A] (H-RAPCPDLDPWTCSDWWLCA-NH2; linker 4-12-18 via TATA; N-terminus and C-terminus assumed)",11,0.086,–
"CC(C)C[C@@H]1NC(=O)[C@H](Cc2c[nH]c3ccccc23)NC(=O)[C@H](Cc2c[nH]c3ccccc23)NC(=O)[C@H](CO)NC(=O)[C@H](CC(=O)O)NC(=O)[C@@H]2CSCCC(=O)N3CN(CN(C3)C(=O)CCSC[C@H](NC(=O)[C@@H](NC(=O)[C@H](Cc3c[nH]cn3)NC(=O)[C@@H](N)CO)C(C)C)C(=O)N[C@@H](CCCNC(=N)N)C(=O)N[C@@H](CC(=O)O)C(=O)N[C@@H](CC(C)C)C(=O)N[C@@H](CC(=O)O)C(=O)N3CCC[C@H]3C(=O)N[C@@H](Cc3c[nH]c4ccccc34)C(=O)N[C@@H]([C@@H](C)O)C(=O)N2)C(=O)CCSC[C@@H](C(=O)N[C@@H](C)C(N)=O)NC1=O [Example 188, SHV-(SEQ ID NO: 137)-A] (H-SHVCRDLDPWTCDSWWLCA-NH2; linker 4-12-18 via TATA; N-terminus and C-terminus assumed)",-4,0.072,–
"CC(C)C[C@H](NC(=O)CNC(=O)[C@H](CC(=O)O)NC(=O)[C@H](C)NC(=O)[C@@H]1CSCCC(=O)N2CN3CN(C2)C(=O)CCSC[C@H](NC(=O)[C@H]([C@@H](C)O)NC(=O)[C@H](Cc2c[nH]c4ccccc24)NC(=O)[C@@H]2CCCN2C(=O)[C@H](CC(=O)O)NC(=O)[C@H](CC(C)C)NC(=O)[C@H](CC(=O)O)NC(=O)[C@H](CCCNC(=N)N)NC(=O)[C@@H](NC(=O)[C@H](C)N)CSCCC3=O)C(=O)N[C@@H](CO)C(=O)N[C@@H](CO)C(=O)N[C@@H](Cc2c[nH]c3ccccc23)C(=O)N[C@@H](Cc2c[nH]c3ccccc23)C(=O)N[C@@H](CC(C)C)C(=O)N1)C(=O)N[C@@H](Cc1ccc(O)cc1)C(=O)N[C@@H](CC(=O)O)C(=O)N[C@@H](C)C(N)=O [Example 193, A-(SEQ ID NO: 122)-ADGLYDA]",47,0.05,–
"CC(C)C[C@@H]1NC(=O)[C@H](Cc2c[nH]c3ccccc23)NC(=O)[C@@H]2CSCCC(=O)N3CN(CN(C3)C(=O)CCSC[C@@H](C(=O)N[C@@H](C)C(N)=O)NC(=O)[C@H](CO)NC1=O)C(=O)CCSC[C@H](NC(=O)[C@H](C)N)C(=O)N[C@@H](CC(=O)O)C(=O)N[C@@H](Cc1c[nH]c3ccccc13)C(=O)N[C@@H](Cc1c[nH]cn1)C(=O)N[C@@H](Cc1c[nH]c3ccccc13)C(=O)N[C@@H](CCC(=O)O)C(=O)N[C@@H](Cc1ccc(O)cc1)C(=O)N[C@@H](CC(=O)O)C(=O)N2 [Example 199, A-(SEQ ID NO: 144)-A]",-3,0.081,–
"CC(C)C[C@@H]1NC(=O)[C@H](Cc2c[nH]c3ccccc23)NC(=O)[C@@H]2CSCCC(=O)N3CN(CN(C3)C(=O)CCSC[C@H](NC(=O)[C@H](CC(=O)O)NC(=O)[C@H](Cc3c[nH]cn3)NC(=O)[C@@H](N)CC(=O)O)C(=O)N[C@@H]([C@@H](C)O)C(=O)N[C@@H](Cc3c[nH]c4ccccc34)C(=O)N[C@@H](CC(N)=O)C(=O)N[C@@H](Cc3c[nH]c4ccccc34)C(=O)N[C@@H](CCC(=O)O)C(=O)N[C@@H](Cc3ccc(O)cc3)C(=O)N[C@@H](CC(=O)O)C(=O)N2)C(=O)CCSC[C@@H](C(=O)N[C@@H](C)C(N)=O)NC(=O)[C@H](CC(=O)O)NC1=O [Example 200, DHD-(SEQ ID NO: 145)-A] (H-DHDCTWNWEYDCWLDCA-NH2; linker 4-12-16 via TATA; N-terminus and C-terminus assumed)",-42,0.068,–
"Ac-Cys-Gln-X2-Leu-Glu-Asp-Cys-Trp-X1-Gly-Phe(4-F)-Cys-NH2 (X1=L-2-amino-azidobutanoic acid, X2=L-2-aminohept-6-ynoic acid; three Cys bridged by TATA)",–,–,1
